These results are taken from article PMC8560754, “Bridging the gap between in silico and in vivo by modeling opioid disposition in a kidney proximal tubule microphysiological system” (Scientific Reports, 2021).

The conditions of series [1]: blood-to-plasma ratio; cited from earlier work.
The nature of series [2]: Bidirectional transport across MDCK monolayers in conventional 2D Transwell. Format: in vitro ADME. As to conditions: dog, Inhibitor (-), 1.5 hour incubation. The source says: (§1) Samples were collected from basal (for apical to basal transport) or apical (for basal to apical transport) insert and analyzed by LC/MS/MS. Concentrations were used to determine apparent permeability (Papp) by using the following equation: […]

Series [3] concerns PTECs monolayers. Kind of series: Bidirectional transport across PTECs monolayers in conventional 2D Transwell. The format is in vitro ADME, human. The conditions noted are these: for CLint, secretion: considered as zero since no active secretion was observed in 2D Transwell; for Papp A→B / Papp B→A: Inhibitor (-), 1.5 hour incubation; for Papp A→B: read-out: Papp Apical to Basal; for Papp B→A: read-out: Papp Basal to Apical. The protocol:
(§2) PTECs were seeded on polyester membrane HTS 24-well Transwell^TM inserts at 0.5-1 ×10^5 cells/well and cultured for 7-10 days until confluency. Transepithelial electrical resistance
(§3) (TEER) across PTECs monolayers was monitored by an EVOM meter from World Precision Instruments (Berlin, Germany). TEER values were normalized to culture surface areas of Transwell^TM inserts. Wells with TEER reading from 25-150 ohm∙cm^2 were used for experiments.
as §1

Assay in series [4]: as above
Format: in vitro ADME, human. The conditions noted are these: human; for Papp at 1.5 h, 1 µM: PTECs permeability study data used for CLr prediction; for Papp A→B at 1.5 h, 1 µM / Papp B→A at 1.5 h, 1 µM: Inhibitor (-), 1.5 hour incubation; for Papp A→B at 1.5 h, 1 µM: read-out: Papp Apical to Basal; for Papp B→A at 1.5 h, 1 µM: read-out: Papp Basal to Apical. As to the method: as §2, §3, §1

For series [5] the following is noted: ref www.drugbank.ca; cited from earlier work.
Series [6] deals with human primary proximal tubular epithelial cells (PTEC) tubule in VPT-MPS. Put plainly: Transport of morphine and M6G in the vascularized proximal tubule MPS (VPT-MPS). As to conditions: for CLint,sec: VPT-MPS derived intrinsic secretion clearance; for CLsecretion, each proximal subsegment S1, S2, and S3: clearance value of each proximal subsegment; for CLsecretion, each proximal subsegment S1, S2, and S3 / CLsecretion: scaled up from VPT-MPS; for CLsecretion: unbound intrinsic kidney active secretion clearance at proximal tubule, total; for CLapp, passive diffusion / CLapp, active secretion: one representative donor; for CLapp, passive diffusion / Concentration in endothelial cell / Efflux rate into lumen / CLapp, active secretion: mean ± SD; for Concentration in endothelial cell / Efflux rate into lumen: representative donor of Fig 2. Format: in vitro ADME. As to the method:
(§4) The inner chamber of dual-channel MPS devices (Duplo, Fig. 1) (https://www.nortisbio.com/) was dried, filled with 6 mg/mL of rat tail collagen I, and left overnight to allow the collagen I matrix to solidify. The mandrels of the MPS platforms were then removed, leaving two hollow channels through the collagen I matrix. The PTEC channel was coated with a 5 µg/mL mouse collagen IV to facilitate human PTECs adhesion. Cultures of primary kidney epithelial cells were subjected to trypsin digestion to obtain single cell suspensions. The cells were counted and resuspended with PTECs culture media at a concentration of 20 × 10^6 cells/mL and 2–2.5 µL were injected into the collagen IV-coated channel. Cells were allowed to attach for 3 h before starting perfusion at a rate of 1.0 µL/min. A 1.0 µL/min perfusion of DMEM/F12 media containing ITS-A, 50 nM hydrocortisone, penicillin–streptomycin and amphotericin B was then initiated. Following 6 days under these culture conditions, the epithelial tubule was established and perfusion to the channel was stopped for a brief period. The parallel vacant channel was equilibrated with EGM-2 media containing 2% FBS for 2 h at 1.0 µL/min. Then, HUVECs (passages 5–10) were seeded into the equilibrated channel and allowed to attach for 30 min to establish an endothelial vessel. Flow to both channels was resumed at 1.0 µL/min with both channels receiving their respective culture medium. The day after seeding HUVEC, VPT-MPS were used for transport experiments. Prior to the beginning of experiments, a visual inspection under light microscope was performed to confirm complete (100%) coverage of both HUVEC vessel and PTEC tubule, respectively.
(§5) The flow rate of flow through both channels was set at 1 µL/min. Effluents from the vessel and the tubule were collected every 2 h, and drug concentrations in the samples were determined LC/MS/MS. Transport experiments were conducted across 3 different donors. Effluent measurements were extended out to 24 h in order to reach steady-state levels in solute output.

Assay in series [7]: as above
Format: in vitro ADME, human. The conditions noted are these: human, with probenecid (1 mM) and tetraethylammonium (1 mM), read-out: Permeability. The protocol:
as §4, §5

For series [8] the following is noted: human, cited from earlier work.
A short description of series [9]: Morphine-M6G parent-metabolite full body PBPK model. Also on record: species or system human. As to conditions: hepatic clearance; systemic clearance minus renal clearance.
The conditions of series [10]: fraction of morphine metabolism to M6G; cited from earlier work.

Read-outs that look alike come from different tables or passages of the source. Marks after values point to notes of the source that are not given here.

For the compound `CN1CC[C@]23c4c5ccc(O)c4O[C@H]2[C@@H](O[C@@H]2O[C@H](C(=O)O)[C@@H](O)[C@H](O)[C@H]2O)C=C[C@H]3[C@H]1C5` [M6G, morphine-6-glucuronide], the B/P in series [1] was 0.55^e. The Papp A→B at 1.5 h, 1 µM came to 3.86 ×10⁻⁶ cm/s in series [2] (read-out: Papp Apical to Basal); 58 ×10⁻⁶ cm/s in [4] (Donor2); 40.1 ± 7.5 ×10⁻⁶ cm/s in series [4] (Donor3); 22.5 ×10⁻⁶ cm/s in [4] (Donor4); 28.6 ± 1.6 ×10⁻⁶ cm/s in series [4] (Donor5); 55.6 ×10⁻⁶ cm/s in series [4] (Donor6). The Papp B→A at 1.5 h, 1 µM in [2] (read-out: Papp Basal to Apical) stood at 1.53 ± 0.17 ×10⁻⁶ cm/s; in series [4] (Donor2), 54.6 ×10⁻⁶ cm/s; in series [4] (Donor3) it was 24.9 ± 14.2 ×10⁻⁶ cm/s; in series [4] (Donor4) it was 12.2 ×10⁻⁶ cm/s; in series [4] (Donor5), 28.6 ± 2.1 ×10⁻⁶ cm/s; in series [4] (Donor6), 42.2 ×10⁻⁶ cm/s. Moreover, the “CLint, secretion” value in [3] (Donor2), in series [3] (Donor3), in series [3] (Donor5) and in series [3] (Donor6) was 0 µL/h each time. Moreover, the Papp at 1.5 h, 1 µM in series [4] (Donor3) is 40.1 ×10⁻⁶ cm/s; in series [4] (Donor5), 28.6 ×10⁻⁶ cm/s; in [4] (Donor6) it was 40.1 ×10⁻⁶ cm/s. In series [5], the “pKa (base)” value is reported as 9.12^b. In addition, the “decrease in intrinsic clearance by transporter inhibitors” value in series [6] (1 mM probenecid and 1 mM tetraethylammonium, average of three donors) is on record as 63.6%. Moreover, the entries for the “CLint,sec” value in series [6] (Donor1), in [6] (Donor2) and in series [6] (Donor3) were 15.6 ± 10.5 µL/h/MPS, 1.29 ± 1.09 µL/h/MPS and 22.9 µL/h/MPS, respectively. Moreover, the “CLsecretion, each proximal subsegment S1, S2, and S3” value in [6] worked out at 14.5 L/h. Also, the “CLint, active secretion, range between PTECs donors” value in series [6] (three donors) is recorded as 1.29–22.9 µL/h/VPT-MPS. The compound further showed a CLsecretion in series [6] of 43.5 L/h. The “CLapp, passive diffusion” value in [6] (with inhibitor) stood at 1.92±2.02 μL/hr/MPS. Further, the figures for the “Concentration in endothelial cell” value in series [6] (with inhibitor) and in series [6] (without inhibitor) were 639 ± 34 nM and 640 ± 58 nM, respectively. In addition, the “Efflux rate into lumen” value in series [6] (with inhibitor) turned out to be 0.0191 ± 0.0192 pmol/min/MPS; in series [6] (without inhibitor), 0.110 ± 0.043 pmol/min/MPS. Besides, the “CLapp, active secretion” value in series [6] (without inhibitor) is given as 7.90±3.86 μL/hr/MPS. Moreover, the Papp at 24 h, 1 µM is 25.9 ± 28.5 ×10⁻⁶ cm/s in series [7] (Donor1, VPT-MPS); 9.74 ± 11.1 ×10⁻⁶ cm/s in series [7] (Donor2, VPT-MPS); 41.8 ×10⁻⁶ cm/s in series [7] (Donor3, VPT-MPS); 23.8 ×10⁻⁶ cm/s in series [7] (PBPK model parameter, experimentally determined using VPT-MPS). The “CLr,observed” value in series [8] was 9.20–14.3[20],[21] L/h; in series [8] (ref 5,6 (supplement)), 9.20-14.3 ^5,6 L/hr.
For `CN1CC[C@]23c4c5ccc(O)c4O[C@H]2[C@@H](O)C=C[C@H]3[C@H]1C5` [Morphine, reference compound], in [1], the B/P is reported as 1.08^e. The CLh in series [9] was 75.3^i L/h. Also, in series [10], the “fm,M6G” value is listed as 0.1^k. Moreover, in series [6], the “CLsecretion, each proximal subsegment S1, S2, and S3” value amounted to 13.1 L/h; the CLsecretion is 39.3 L/h. Also, in series [6] (with inhibitor), the “CLapp, passive diffusion” value stood at 2.09±1.58 μL/hr/MPS. Besides, the “CLapp, active secretion” value in [6] (without inhibitor) came out at 6.98±3.94 μL/hr/MPS.
For `Nc1ccc(C(=O)NCC(=O)O)cc1` [[^3H] PAH, para-aminohippuric acid, reference compound], the “active transport in 2D Transwell” value in [3] (2D culture, probe substrate of OAT1 and OAT3) is given as “negligible active transport”. Moreover, the Papp A→B in series [3] (Donor2) was determined as 72.4 ×10⁻⁶ cm/s; in series [3] (Donor3), 31.7 ×10⁻⁶ cm/s; in series [3] (Donor6), 71.7 ×10⁻⁶ cm/s. The Papp B→A in [3] (Donor2) is 69.6 ×10⁻⁶ cm/s; in series [3] (Donor3), 23 ×10⁻⁶ cm/s; in [3] (Donor6), 67.3 ×10⁻⁶ cm/s.
